Assay results as given in patent US11970494B2, “6-heteroaryloxy benzimidazoles and azabenzimidazoles as JAK2 inhibitors” (Ajax Therapeutics, Inc., priority 2021, dated 2024).

target: T1, JAK2 (JH1 domain-catalytic, Y1007F,Y1008F) kinase (Homo sapiens, UniProt O60674, Y1007F/Y1008F); assay: JAK2 Binding Assay (JAK2 JH1 Domain Binding Assay); settings: JAK2 JH1 domain binding, qPCR detection; read-out: JAK2 Kd
T1 construct: made in house; host or cells: transiently transfected HEK293 cells
T1 sequence (O60674 849-1124 Y1007F/Y1008F limits assumed): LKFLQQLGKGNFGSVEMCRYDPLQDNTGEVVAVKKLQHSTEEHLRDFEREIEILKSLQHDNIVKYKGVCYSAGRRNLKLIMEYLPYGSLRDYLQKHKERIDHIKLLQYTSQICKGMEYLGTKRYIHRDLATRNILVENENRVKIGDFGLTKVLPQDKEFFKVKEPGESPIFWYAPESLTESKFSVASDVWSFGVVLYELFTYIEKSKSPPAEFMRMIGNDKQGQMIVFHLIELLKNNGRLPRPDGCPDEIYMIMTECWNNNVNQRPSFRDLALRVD

`Cn1cc(C(F)(F)F)cc(Nc2nc3ncc(Oc4ccnc(NC(=O)C[C@@H]5CCCCO5)c4)c(C#N)c3n2C)c1=O` (single isomer, unassigned) [Example I-74-a] and `CN1CCO[C@H](CC(=O)Nc2cc(Oc3cnc4nc(Nc5cc(C(F)(F)F)cn(C)c5=O)n(C)c4c3C#N)ccn2)C1` (single isomer, unassigned) [Example I-90-a] cannot be ordered by Kd: under 10 nM for the first, under 10 nM for the second.

`CN1CCO[C@H](CC(=O)Nc2cc(Oc3cnc4nc(Nc5cc(C(F)(F)F)cn(C)c5=O)n(C)c4c3Cl)ccn2)C1` (single isomer, unassigned) [Example I-78-a] and `CN1CCO[C@@H](CC(=O)Nc2cc(Oc3cnc4nc(Nc5cc(C(F)(F)F)cn(C)c5=O)n(C)c4c3Cl)ccn2)C1` (single isomer, unassigned) [Example I-78-b] cannot be ordered by Kd: under 10 nM for the first, under 10 nM for the second.

`CN1CCO[C@@H](CC(=O)Nc2cc(Oc3cnc4nc(Nc5cc(C(F)(F)F)cn(C)c5=O)n(C)c4c3C#N)ccn2)C1` (single isomer, unassigned) [Example I-90-b] and `Cn1cc(C(F)(F)F)cc(Nc2nc3ncc(Oc4ccnc(NC(=O)N5CC(O)C5)c4)c(C#N)c3n2C)c1=O` [Example I-8, N-(4-((7-cyano-1-methyl-2-((1-methyl-2-oxo-5-(trifluoromethyl)-1,2-dihydropyridin-3-yl)amino)-1H-imidazo[4,5-b]pyridin-6-yl)oxy)pyridin-2-yl)hydroxyazetidine-1-carboxamide] cannot be ordered by Kd: under 10 nM for the first, under 10 nM for the second.

`CC(=O)Nc1cc(Oc2cnc3nc(Nc4cc([C@H]5CCOC5)nc(C(F)(F)F)c4)n(C)c3c2Cl)ccn1` (single isomer, unassigned) [Example I-91-a] and `CC(=O)Nc1cc(Oc2cnc3nc(Nc4cc([C@@H]5CCOC5)nc(C(F)(F)F)c4)n(C)c3c2Cl)ccn1` (single isomer, unassigned) [Example I-91-b] cannot be ordered by Kd: under 10 nM for the first, under 10 nM for the second.

`CC(=O)Nc1cc(Oc2cnc3nc(Nc4cc([C@H]5CCOC5)nc(C(F)(F)F)c4)n(C)c3c2C#N)ccn1` (single isomer, unassigned) [Example I-95-i] and `CC(=O)Nc1cc(Oc2cnc3nc(Nc4cc([C@@H]5CCOC5)nc(C(F)(F)F)c4)n(C)c3c2C#N)ccn1` (single isomer, unassigned) [Example I-95-ii] cannot be ordered by Kd: under 10 nM for the first, under 10 nM for the second.

`CC(=O)Nc1cc(Oc2cnc3nc(Nc4cc([C@H]5CCCN5C)cc(C(F)(F)F)c4)n(C)c3c2Cl)ccn1` (single isomer, unassigned) [Example I-102-a] and `CC(=O)Nc1cc(Oc2cnc3nc(Nc4cc([C@@H]5CCCN5C)cc(C(F)(F)F)c4)n(C)c3c2Cl)ccn1` (single isomer, unassigned) [Example I-102-b] cannot be ordered by Kd: under 10 nM for the first, under 10 nM for the second.

`CC(=O)Nc1cc(Oc2cnc3nc(Nc4ccc([C@H]5CCCN5C)c(C(F)(F)F)c4)n(C)c3c2Cl)ccn1` (single isomer, unassigned) [Example I-108-a] and `CC(=O)Nc1cc(Oc2cnc3nc(Nc4ccc([C@@H]5CCCN5C)c(C(F)(F)F)c4)n(C)c3c2Cl)ccn1` (single isomer, unassigned) [Example I-108-b] cannot be ordered by Kd: under 10 nM for the first, under 10 nM for the second.

`CC(=O)Nc1cc(Oc2cnc3nc(Nc4ccc([C@H]5CCCN5C)c(C(F)(F)F)c4)n(C)c3c2C#N)ccn1` (single isomer, unassigned) [Example I-109-a] and `CC(=O)Nc1cc(Oc2cnc3nc(Nc4ccc([C@@H]5CCCN5C)c(C(F)(F)F)c4)n(C)c3c2C#N)ccn1` (single isomer, unassigned) [Example I-109-b] cannot be ordered by Kd: under 10 nM for the first, under 10 nM for the second.

`CNC(=O)Nc1cc(Oc2cnc3nc(Nc4cc(C(F)(F)F)cn(C)c4=O)n(C)c3c2C#N)ccn1` [Example I-5, 1-(4-((7-cyano-1-methyl-2-((1-methyl-2-oxo-5-(trifluoromethyl)-1,2-dihydropyridin-3-yl)amino)-1H-imidazo[4,5-b]pyridin-6-yl)oxy)pyridin-2-yl)-3-methylurea] and `Cn1cc(C(F)(F)F)cc(Nc2nc3ncc(Oc4ccnc(NC(=O)OCCO)c4)c(C#N)c3n2C)c1=O` [Example I-20, 2-Hydroxyethyl(4-((7-cyano-1-methyl-2-((1-methyl-2-oxo-5-(trifluoromethyl)-1,2-dihydropyridin-3-yl)amino)-1H-imidazo[4,5-b]pyridin-6-yl)oxy)pyridin-2-yl)carbamate] cannot be ordered by Kd: under 10 nM for the first, under 10 nM for the second.

`CN1CCN(C(=O)Nc2cc(Oc3cnc4nc(Nc5cc(C(F)(F)F)cn(C)c5=O)n(C)c4c3C#N)ccn2)CC1` [Example I-6, N-(4-((7-cyano-1-methyl-2-((1-methyl-2-oxo-5-(trifluoromethyl)-1,2-dihydropyridin-3-yl)amino)-1H-imidazo[4,5-b]pyridin-6-yl)oxy)pyridin-2-yl)-4-methylpiperazine-1-carboxamide] and `Cn1cc(C(F)(F)F)cc(Nc2nc3ncc(Oc4ccnc(NC(=O)N5CCCC5)c4)c(C#N)c3n2C)c1=O` [Example I-11, N-(4-((7-cyano-1-methyl-2-((1-methyl-2-oxo-5-(trifluoromethyl)-1,2-dihydropyridin-3-yl)amino)-1H-imidazo[4,5-b]pyridin-6-yl)oxy)pyridin-2-yl)pyrrolidine-1-carboxamide] cannot be ordered by Kd: under 10 nM for the first, under 10 nM for the second.

`COC1CN(C(=O)Nc2cc(Oc3cnc4nc(Nc5cc(C(F)(F)F)cn(C)c5=O)n(C)c4c3C#N)ccn2)C1` [Example I-9, N-(4-((7-cyano-1-methyl-2-((1-methyl-2-oxo-5-(trifluoromethyl)-1,2-dihydropyridin-3-yl)amino)-1H-imidazo[4,5-b]pyridin-6-yl)oxy)pyridin-2-yl)-3-methoxyazetidine-1-carboxamide] and `CO[C@@H]1CCN(C(=O)Nc2cc(Oc3cnc4nc(Nc5cc(C(F)(F)F)cn(C)c5=O)n(C)c4c3C#N)ccn2)C1` [Example I-13, (R)-N-(4-((7-cyano-1-methyl-2-((1-methyl-2-oxo-5-(trifluoromethyl)-1,2-dihydropyridin-3-yl)amino)-1H-imidazo[4,5-b]pyridin-6-yl)oxy)pyridin-2-yl)methoxypyrrolidine-1-carboxamide] cannot be ordered by Kd: under 10 nM for the first, under 10 nM for the second.

`COC(=O)Nc1cc(Oc2cnc3nc(Nc4cc(C(F)(F)F)n(C5CC6(COC6)C5)n4)n(C)c3c2Cl)ccn1` [Example I-10, Methyl(4-((2-((1-(2-oxaspiro[3.3]heptan-6-yl)-5-(trifluoromethyl)-1H-pyrazol-3-yl)amino)-7-chloro-1-methyl-1H-imidazo[4,5-b]pyridin-6-yl)oxy)pyridin-2-yl)carbamate] and `COC(=O)Nc1cc(Oc2cnc3nc(Nc4cc5n(n4)CCCC5(F)F)n(C)c3c2C#N)ccn1` [Example I-22, Methyl(4-((7-cyano-2-((4,4-difluoro-4,5,6,7-tetrahydropyrazolo[1,5-a]dpyridin-2-yl)amino)-1-methyl-1H-imidazo[4,5-b]pyridin-6-yl)oxy)pyridin-2-yl)carbamate] cannot be ordered by Kd: under 10 nM for the first, under 10 nM for the second.

`COCCOC(=O)Nc1cc(Oc2cnc3nc(Nc4cc(C(F)(F)F)cn(C)c4=O)n(C)c3c2C#N)ccn1` [Example I-12, 2-methoxyethyl(4-((7-cyano-1-methyl-2-((1-methyl-2-oxo-5-(trifluoromethyl)-1,2-dihydropyridin-3-yl)amino)-1H-imidazo[4,5-b]pyridin-6-yl)oxy)pyridin-2-yl)carbamate] and `Cn1cc(C(F)(F)F)cc(Nc2nc3ncc(Oc4ccnc(NC(=O)OC5COC5)c4)c(C#N)c3n2C)c1=O` [Example I-16, Oxetan-3-yl(4-((7-cyano-1-methyl-2-((1-methyl-2-oxo-5-(trifluoromethyl)-1,2-dihydropyridin-3-yl)amino)-1H-imidazo[4,5-b]pyridin-6-yl)oxy)pyridin-2-yl)carbamate] cannot be ordered by Kd: under 10 nM for the first, under 10 nM for the second.

`Cn1cc(C(F)(F)F)cc(Nc2nc3ncc(Oc4ccnc(NC(=O)O[C@H]5CCOC5)c4)c(C#N)c3n2C)c1=O` [Example I-17, (S)-Tetrahydrofuran-3-yl(4-((7-cyano-1-methyl-2-((1-methyl-2-oxo-5-(trifluoromethyl)-1,2-dihydropyridin-3-yl)amino)-1H-imidazo[4,5-b]pyridin-6-yl)oxy)pyridin-2-yl)carbamate] and `CN(C)CCOC(=O)Nc1cc(Oc2cnc3nc(Nc4cc(C(F)(F)F)cn(C)c4=O)n(C)c3c2Cl)ccn1` [Example I-19, 2-(Dimethylamino)ethyl(4-((7-chloro-1-methyl-2-((1-methyl-2-oxo-5-(trifluoromethyl)-1,2-dihydropyridin-3-yl)amino)-1H-imidazo[4,5-b]pyridin-6-yl)oxy)pyridin-2-yl)carbamate] cannot be ordered by Kd: under 10 nM for the first, under 10 nM for the second.

`CN(C)C(=O)Nc1cc(Oc2cnc3nc(Nc4cc5n(n4)CCCC5(F)F)n(C)c3c2C#N)ccn1` [Example I-21, 3-(4-((7-cyano-2-((4,4-difluoro-4,5,6,7-tetrahydropyrazolo[1,5-a]pyridin-2-yl)amino)-1-methyl-1H-imidazo[4,5-b]pyridin-6-yl)oxy)pyridin-2-yl)-1,1-dimethylurea] and `Cn1c(Nc2cc3n(n2)CCCC3(F)F)nc2ncc(Oc3ccnc(NC(=O)N4CCCC4)c3)c(C#N)c21` [Example I-23, N-(4-((7-cyano-2-((4,4-difluoro-4,5,6,7-tetrahydropyrazolo[1,5-a]pyridin-2-yl)amino)-1-methyl-1H-imidazo[4,5-b]pyridin-6-yl)oxy)pyridin-2-yl)pyrrolidine-1-carboxamide] cannot be ordered by Kd: under 10 nM for the first, under 10 nM for the second.

`CN1CCN(C(=O)Nc2cc(Oc3cnc4nc(Nc5cc6n(n5)CCCC6(F)F)n(C)c4c3C#N)ccn2)CC1` [Example I-24, N-(4-((7-cyano-2-((4,4-difluoro-4,5,6,7-tetrahydropyrazolo[1,5-a]pyridin-2-yl)amino)-1-methyl-1H-imidazo[4,5-b]pyridin-6-yl)oxy)pyridin-2-yl)-4-methylpiperazine-1-carboxamide] and `Cn1c(Nc2cc3n(n2)CCCC3(F)F)nc2ncc(Oc3ccnc(NC(=O)N4CCOCC4)c3)c(C#N)c21` [Example I-25, N-(4-((7-cyano-2-((4,4-difluoro-4,5,6,7-tetrahydropyrazolo[1,5-a]pyridin-2-yl)amino)-1-methyl-1H-imidazo[4,5-b]pyridin-6-yl)oxy)pyridin-2-yl)morpholine-4-carboxamide] fall in the same range of Kd: 10 to 50 nM for the first, 10 to 50 nM for the second.
